Assay results from patent publication US20130005812A1, “METHOD FOR ALLEVIATING ALLERGIC ASTHMA AND ALLERGIC RESPONSE BY USING BITTER MELON COMPOSITION” (NATIONAL TAIWAN UNIVERSITY, priority 2011, published 2013).

How the values were obtained:
Format in all cases: in vivo, BALB/c mice
[1] = Growth and feed intake of OVA-sensitized mice
Description: (§1) Inbred female BALB/c mice (4 weeks old) were purchased from the Laboratory Animal Center, National Taiwan University and housed in a room with constant temperature of 23±2° C. The animal room was kept on a 12-h light and 12-h dark cycle. The mice were housed and kept on free diet and water to acclimatize before feeding the experimental diet. Diet ingestions are recorded every 3˜4 days, and mice body weight were recorded every week. When mice were in 8 week old, the mice were sensitized and challenged to induce allergic reaction at week 8, 10 and 12 by an intraperitonal injection (i.p.) of antigen containing ovalbumin antigen and adjuvant (Imject® Alum). Blood samples were collected on two days before injection and on two weeks after last injection for analysis of OVA-specific antibodies. Mice were divided in five groups based on OVA-specific IgE antibody and body weight, namely OVA-oil group (the control group), OVA-BGP group (feed containing 5% of freeze dried bitter melon powder), OVA-CLN group (tube feeding containing 35 mg CLN), OVA-Pred (prednisolone, the positive control group), and PBS-oil (the non-sensitized group), respectively. Mice diet was based on AIN-76 formulation (feed composition referred to J. Nutri. 107: 1340-1384, 1977). Administration of steroid prednisolone by tube feeding started 4 days before AHR induction and last to the day sacrificed. After 4 days of feeding, mice were challenged with 5% aerosol of OVA solution, while the PBS-oil group was administered with aerosol PBS. Change of mice airway resistance was measured after 13 days of feeding, and mice were sacrificed on day 16.
BALB/c mice were sensitized every other week for three times. Two weeks before the last sensitization mice were divided into five groups according to OVA-specific IgE and body weight, then different experimental diet were provided for 16 days. […] In the aspect of daily ingestion, no difference was observed among these mice groups.

OVA-sensitized mice [2] = test: Airway hyperresponsiveness (Penh, methacholine challenge, whole-body plethysmograph); conditions: Mch challenge 12.5 mg/ml or higher; after 13 days feeding; FIG. 2
Description: Inbred female BALB/c mice (4 weeks old) were purchased from the Laboratory Animal Center, National Taiwan University and housed in a room with constant temperature of 23±2° C. The animal room was kept on a 12-h light and 12-h dark cycle. The mice were housed and kept on free diet and water to acclimatize before feeding the experimental diet. Diet ingestions are recorded every 3˜4 days, and mice body weight were recorded every week. When mice were in 8 week old, the mice were sensitized and challenged to induce allergic reaction at week 8, 10 and 12 by an intraperitonal injection (i.p.) of antigen containing ovalbumin antigen and adjuvant (Imject® Alum). […] Change of mice airway resistance was measured after 13 days of feeding, and mice were sacrificed on day 16. […]
After an inhaled antigen challenge, airway resistance of the mice were tested the following day using Buxco system (Biosystem XA, Buxco Electronics Inc. Sharon, Conn., USA), in which the differential pressure transducer (Buxco) and preamplifier (MAX II, Buxco) were used to collect change information of mice respiratory and to calculate lung Penh value (Penh, enhanced pause). […] After excess aerosol was evacuated, an average Penh value per minute was recorded. […] The same challenge process was performed at each concentration, and an average Penh value per minute was recorded after 3 mins after each challenge. […]

[3] = Organ weight and relative organ weight of OVA-sensitized mice
Description: as §1
After 16 days of feeding, the absolute weight of heart of OVA-BGP treated mice was less than the OVA-oil treated mice. […] There was no difference between the OVA-CLN group and control group. […] The absolute weight and relative weight of lung of PBS-oil mice group were lower than sensitized mice groups.

OVA-sensitized mice [4] = test: Leukocyte numbers in BALF; conditions: FIG. 3A-3B
Description: Inbred female BALB/c mice (4 weeks old) were purchased from the Laboratory Animal Center, National Taiwan University and housed in a room with constant temperature of 23±2° C. The animal room was kept on a 12-h light and 12-h dark cycle. The mice were housed and kept on free diet and water to acclimatize before feeding the experimental diet. Diet ingestions are recorded every 3˜4 days, and mice body weight were recorded every week. When mice were in 8 week old, the mice were sensitized and challenged to induce allergic reaction at week 8, 10 and 12 by an intraperitonal injection (i.p.) of antigen containing ovalbumin antigen and adjuvant (Imject® Alum). Blood samples were collected on two days before injection and on two weeks after last injection for analysis of OVA-specific antibodies. […] Change of mice airway resistance was measured after 13 days of feeding, and mice were sacrificed on day 16.
After mice were sacrificed, fur and skin in the mice neck were incised and muscle surrounding the trachea was tear open to expose the trachea. […] Total leukocytes were counted with a hemocytometer using trypan blue dye exclusion method. […] Two hundreds of leukocytes were counted on each slide, which includes four different cells, eosinophil, neutrophil, lymphocyte and monocyte.

OVA-sensitized mice [5] = test: Cytokine, eotaxin and PGE2 level in BALF (ELISA); conditions: day 16; mean ± SD
Description: as §1
After mice were sacrificed, fur and skin in the mice neck were incised and muscle surrounding the trachea was tear open to expose the trachea. A small hole was made on the trachea near the head with scissors to intubate tracheal tubing. After intubation, their lungs and airways were lavaged with […] of sterile PBS. Two ml of bronchoalveolar lavage fluid (BALF) was centrifuged at 1500 rpm for 7 mins at 4° C. The supernatant (BALF) was collected and stored at −80° C. for cytokine concentration determination. The cell pellet was washed with HBSS buffer twice and re-suspended in 10% FBS/RPMI medium. Total leukocytes were counted with a hemocytometer using trypan blue dye exclusion method. After the cell concentration was adjusted to 5×10^5 cell/ml, aliquots of 100 μl total cells were centrifuged with cytospin at 500 rpm for 2 mins and then stained with Liu A for 30 seconds. After excess stain was washed off and air dried, the cells were stained with Liu B for 5 seconds. Slides were air-dried and sealed with Arabic gum. […] Two hundreds of leukocytes were counted on each slide, which includes four different cells, eosinophil, neutrophil, lymphocyte and monocyte.
BD Pharmingen System was provided as an example. Cytokine concentration was determined by ABC (avidin-biotin conjugated system) ELISA method. Primary antobiody was added to the 96-microwell plate wells and incubated at 4° C. overnight. After incubation, plates were washed four times with PBST buffer. To block non-specific binding, block buffer were added to each well and the plates were incubated at room temperature for 1 h. After incubation, plates were washed five times with ELISA wash buffer. Appropriately diluted samples or standard solution were then added to the 96-microwell plate wells and the plates were incubated at room temperature for 2˜3 h. After incubation, plates were washed with buffer six times then secondary antibody for detection was added to each well. Plates were incubated for another 1 h. After incubation, plates were washed seven times with ELISA wash buffer. Streptavidin-HRP (horseradish peroxidase) was added to each well and the reaction was allowed to react for 30 mins. After reaction, the plates were washed with ELISA buffer eight times and then HRP-substrate solution was added to the 96-microwell plate wells. […]

[6] = tested on: splenocytes of OVA-sensitized mice; test: Cytokine secretion by OVA-specific stimulated splenocytes ex vivo; conditions: mean ± SD
Description: as §1
Mice were sacrificed and their spleens were aseptically removed and suspended in 3 cm incubation dish containing 3 ml TCM/RPMI solution. Spleen tissue was minced with rear end of syringe and the upper layer cell suspension was collected and placed in 15 ml centrifuge tube. Another 3 ml HBSS buffer was added to wash the dish and residual cells were collected. Cell suspensions were centrifuged at 1500 rpm for 10 mins Supernatant was discard and the precipitated cells were re-suspend in ACK lysing buffer. After 1 minute, HBSS buffer was added to the suspension and then centrifuged at 1500 rpm for 10 mins Cell pellet was washed with HBSS buffer for 3 times. 2 ml of TCM/RPMI medium was added to re-suspend the cells. Cell number was counted and adjusted to 1×10^7 cell/ml. 500 μl of the cell suspension was added to 48 well plates. […] After 48 hours incubation, supernatants were collected and stored at −80° C.
BD Pharmingen System was provided as an example. Cytokine concentration was determined by ABC (avidin-biotin conjugated system) ELISA method. Primary antobiody was added to the 96-microwell plate wells and incubated at 4° C. overnight. After incubation, plates were washed four times with PBST buffer. To block non-specific binding, block buffer were added to each well and the plates were incubated at room temperature for 1 h. After incubation, plates were washed five times with ELISA wash buffer. Appropriately diluted samples or standard solution were then added to the 96-microwell plate wells and the plates were incubated at room temperature for 2˜3 h. After incubation, plates were washed with buffer six times then secondary antibody for detection was added to each well. Plates were incubated for another 1 h. After incubation, plates were washed seven times with ELISA wash buffer. […] The plates were measured the absorbance at 405 nm by ELISA reader.

[7] = after 16 days feeding, mean ± SD

With `CCCC/C=C/C=C/C=C\CCCCCCCC(=O)O` [OVA-CLN, Conjugated linolenic acid] the “Initial Body weight” value ([1]; 14 week-old, before experimental feeding, mean ± SD) was 22.7 ± 1.30 g, the “Final Body Weight” value ([1]; 16 week-old, after 16 days feeding, mean ± SD) was 22.0 ± 1.52 g and the “Effect on mice growth (body weight)” value ([1]; 16 days feeding, in words) was “did not affect mice growth”. The “Feed Intake” value ([1]; mean ± SD) was 2.99 ± 0.31 g/day, the “Airway hyperresponsiveness (Penh) vs OVA-oil group” value (OVA-sensitized mice [2]) was “alleviation of AHR” and the Heart absolute weight [3, 7] was 0.12 ± 0.02 g. For the same molecule, the Heart relative weight [3, 7] was 0.56 ± 0.06%, the Kidney absolute weight [3, 7] was 0.29 ± 0.01 g and the Kidney relative weight [3, 7] was 1.30 ± 0.05%. For the same molecule, the Liver absolute weight [3, 7] was 1.28 ± 0.15 g, the Liver relative weight [3, 7] was 5.80 ± 0.38% and the Lung absolute weight [3, 7] was 0.48 ± 0.08 g. It also gave a Lung relative weight [3, 7] of 2.21 ± 0.46%, a Spleen absolute weight [3, 7] of 0.080 ± 0.026 g and a Spleen relative weight [3, 7] of 0.37 ± 0.12%. The “Eosinophils in BALF vs OVA-oil group” value (OVA-sensitized mice [4]) was “less eosinophils infiltration”, the “Eotaxin in BALF” value (OVA-sensitized mice [5]) was 27.3 ± 8.5 pg/mL and the “IL-1β in BALF” value (OVA-sensitized mice [5]) was 21.0 ± 9.5 pg/mL. The “IL-4 in BALF” value (OVA-sensitized mice [5]) was 39.1 ± 33.9 pg/mL, the “IL-5 in BALF” value (OVA-sensitized mice [5]) was 326 ± 183 pg/mL and the “IL-6 in BALF” value (OVA-sensitized mice [5]) was 12.2 ± 27.8 pg/mL. For the same molecule, the “IL-13 in BALF” value (OVA-sensitized mice [5]) was 254 ± 75 pg/mL, the “PGE2 in BALF” value (OVA-sensitized mice [5]) was 17.2 ± 16.1 ng/mL and the “TNF-α in BALF” value (OVA-sensitized mice [5]) was 64.5 ± 29.3 pg/mL.

In the case of `C[C@]12C=CC(=O)C=C1CC[C@@H]1[C@@H]2[C@@H](O)C[C@@]2(C)[C@H]1CC[C@]2(O)C(=O)CO` [OVA-Pred, prednisolone], the “IFN-γ secretion by splenocytes” value [6] is reported as 110 ± 50 pg/mL, the “IL-2 secretion by splenocytes” value [6] is reported as 66.9 ± 20.9 pg/mL and the “IL-4 secretion by splenocytes” value [6] is reported as 33.4 ± 14.5 pg/mL. For the same molecule, the “IL-5 secretion by splenocytes” value [6] was 2.12 ± 1.85 ng/mL, the “IL-13 secretion by splenocytes” value [6] was 322 ± 118 pg/mL and the “Airway hyperresponsiveness (Penh) vs OVA-oil group” value (OVA-sensitized mice [2]) was “alleviation of AHR”. For the same molecule, the “Relative weight of liver vs OVA-oil group” value ([3]; in words) was “significant lower” and the “Total leukocyte number in BALF vs OVA-oil group” value (OVA-sensitized mice [4]) was “less than those in the OVA-oil group”.
